Drawing on PubChem BioAssay AID330 (DTP/NCI, 2004), this text covers T/C for 14 compounds.

The assay concerns P388 leukemia ip, CD2F1 mice, survival T/C. The assay can be described thus: NCI In Vivo Anticancer Drug Screen. Data for tumor model P388 Leukemia (intraperitoneal) in CD2F1 (CDF1) mice. The conditions noted are these: endpoint: median survival time, higher = longer survival. Summed up:
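Mice carrying the transplanted tumor received test compound or vehicle. Survival was recorded in each group, and the value is the treated-group measurement divided by that of the vehicle-treated control group.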

Where [1] appears, read: dose: 25.0 mg/kg/injection, schedule: Q01DX009 (ip), vehicle: saline with Tween-80.
[2] abbreviates: dose: 50.0 mg/kg/injection, schedule: Q01DX009 (ip), vehicle: saline with Tween-80.
Where [3] appears, read: dose: 100.0 mg/kg/injection, schedule: Q01DX009 (ip), vehicle: saline with Tween-80.
Setting [4] is: dose: 400.0 mg/kg/injection, schedule: Q01DX009 (ip), vehicle: saline with Tween-80.
The mark [5] stands for this setting: dose: 200.0 mg/kg/injection, schedule: Q01DX009 (ip), vehicle: saline with Tween-80.
[6] abbreviates: dose: 60.0 mg/kg/injection, schedule: Q01DX005 (ip), vehicle: saline with Tween-80.
The mark [7] stands for this setting: dose: 120.0 mg/kg/injection, schedule: Q01DX005 (ip), vehicle: saline with Tween-80.
The mark [8] stands for this setting: dose: 240.0 mg/kg/injection, schedule: Q01DX005 (ip), vehicle: saline with Tween-80.
[9] abbreviates: dose: 50.0 mg/kg/injection, schedule: Q01DX005 (ip), vehicle: saline with Tween-80.
The mark [10] stands for this setting: dose: 100.0 mg/kg/injection, schedule: Q01DX005 (ip), vehicle: saline with Tween-80.
The mark [11] stands for this setting: dose: 200.0 mg/kg/injection, schedule: Q01DX005 (ip), vehicle: saline with Tween-80.

The structures appear in SMILES notation. Several values for one entry are separate records, joined by “and”; a condition that tells them apart may be missing. Equal entries are not always repeated. Toxic doses and inconclusive results are not listed. Peptide text beside a SMILES is read from it. * marks the point of attachment. Tos = Cc1ccc(S(=O)(=O)*)cc1; Bn = c1ccc(C*)cc1

Turning to `OC(C1CO1)C(O)C1CO1` (stereo not given), the T/C reads like this: (dose: 0.5 mg/kg/injection, schedule: Q01DX005 (ip), vehicle: saline) 113 % of control and 124 % of control; (dose: 0.5 mg/kg/injection, schedule: Q01DX009 (ip), vehicle: water) 175 % of control; (dose: 1.0 mg/kg/injection, schedule: Q01DX009 (ip), vehicle: saline) 167 % of control and 179 % of control; (dose: 1.0 mg/kg/injection, schedule: Q01DX009 (ip), vehicle: water) 185 % of control; (dose: 1.3 mg/kg/injection, schedule: Q01DX005 (ip), vehicle: saline) 121 % of control; (dose: 1.5 mg/kg/injection, schedule: Q01DX009 (ip), vehicle: saline) 155 % of control and 196 % of control. Besides, the T/C by setting is: (dose: 2.0 mg/kg/injection, schedule: Q01DX009 (ip), vehicle: saline with Tween-80) 159 % of control; (dose: 2.0 mg/kg/injection, schedule: Q01DX009 (ip), vehicle: saline) 194 % of control and 207 % of control; (dose: 2.0 mg/kg/injection, schedule: Q01DX009 (ip), vehicle: water) 256 % of control; (dose: 3.0 mg/kg/injection, schedule: Q01DX005 (ip), vehicle: saline) 170 % of control and 181 % of control; (dose: 3.0 mg/kg/injection, schedule: Q01DX009 (ip), vehicle: saline) 227 % of control; (dose: 4.0 mg/kg/injection, schedule: Q01DX005 (ip), vehicle: saline) 216 % of control and 229 % of control. For the same compound, the T/C runs as follows: (dose: 4.0 mg/kg/injection, schedule: Q01DX009 (ip), vehicle: saline with Tween-80) 213 % of control; (dose: 4.0 mg/kg/injection, schedule: Q01DX009 (ip), vehicle: saline) 291 % of control; (dose: 4.5 mg/kg/injection, schedule: Q01DX005 (ip), vehicle: saline) 190 % of control and 225 % of control; (dose: 6.0 mg/kg/injection, schedule: Q01DX009 (ip), vehicle: saline) 89 % of control; (dose: 6.7 mg/kg/injection, schedule: Q01DX001 (ip), vehicle: saline) 157 % of control and 179 % of control; (dose: 6.7 mg/kg/injection, schedule: Q01DX005 (ip), vehicle: saline) 266 % of control. The T/C reads like this: (dose: 6.7 mg/kg/injection, schedule: Q04DX003 (ip), vehicle: saline) 243 % of control and 254 % of control; (dose: 8.0 mg/kg/injection, schedule: Q01DX005 (ip), vehicle: saline) 89 % of control; (dose: 8.0 mg/kg/injection, schedule: Q01DX009 (ip), vehicle: saline with Tween-80) 100 % of control; (dose: 8.0 mg/kg/injection, schedule: Q01DX009 (ip), vehicle: saline) 103 % of control; (dose: 10.0 mg/kg/injection, schedule: Q04DX003 (ip), vehicle: saline) 281 % of control and 298 % of control; (dose: 12.5 mg/kg/injection, schedule: Q04DX003 (ip), vehicle: saline) 108 % of control. Also, the T/C reads like this: under setting [1], 100 % of control; (dose: 25.0 mg/kg/injection, schedule: Q04DX003 (ip), vehicle: saline sonified) 100 % of control; under setting [2], 104 % of control; (dose: 50.0 mg/kg/injection, schedule: Q04DX003 (ip), vehicle: saline sonified) 100 % of control; under setting [3], 109 % of control; (dose: 100.0 mg/kg/injection, schedule: Q04DX003 (ip), vehicle: saline sonified) 104 % of control.

With `Cc1coc2c1C(=O)C(=O)c1c-2ccc2c1CCCC2(C)CO` (stereo not given) (tested in a mixture with another compound), the T/C under setting [3] is 95 % of control and the T/C under setting [4] was 90 % of control.

For the compound `C=C(C)C1CCC(C)CC(=O)C1` (stereo not given), the T/C by setting is: (dose: 100.0 mg/kg/injection, schedule: Q04DX003 (ip), vehicle: saline + Tween-80 + alcohol) 100 % of control; (dose: 200.0 mg/kg/injection, schedule: Q04DX003 (ip), vehicle: saline + Tween-80 + alcohol) 91 % of control; (dose: 400.0 mg/kg/injection, schedule: Q04DX003 (ip), vehicle: saline + Tween-80 + alcohol) 91 % of control.

In the case of `O=C(OC(=O)c1cccc(-c2ccccc2)c1)c1cccc(-c2ccccc2)c1`, the T/C is 104 % of control (dose: 100.0 mg/kg/injection, schedule: Q04DX003 (ip), vehicle: Klucel (hydroxypropylcellulose) (HPC)); 90 % of control (dose: 200.0 mg/kg/injection, schedule: Q04DX003 (ip), vehicle: Klucel (hydroxypropylcellulose) (HPC)); 90 % of control (dose: 400.0 mg/kg/injection, schedule: Q04DX003 (ip), vehicle: Klucel (hydroxypropylcellulose) (HPC)).

In the case of `COc1ccc(-c2cc(=O)c3ccc4c(O)cccc4c3o2)cc1`, the T/C reads like this: under setting [2], 94 % of control; under setting [3], 100 % of control; under setting [5], 97 % of control; under setting [4], 90 % of control.

In the case of `C(=NCCSSCCN=Cc1ccccc1)c1ccccc1`, the T/C is, setting by setting: under setting [6], 93 % of control; under setting [7], 93 % of control; under setting [8], 103 % of control.

For `COc1ccccc1NC(=O)C1=C(C)NC(C)=C(C(=O)Nc2ccccc2OC)C1c1c(Cl)cccc1Cl`, the T/C runs as follows: under setting [9], 94 % of control; under setting [10], 98 % of control; under setting [11], 95 % of control.

Turning to `CC(=O)OCN1C(=O)C2C3C=CC(C2C1=O)C1C2C(=O)N(COC(C)=O)C(=O)C2C31` (stereo not given), the T/C is, setting by setting: under setting [1], 117 % of control; under setting [2], 115 % of control; under setting [5], 180 % of control; under setting [4], 208 % of control.

As to `C#CC(=O)OCC#CCOC(=O)C#C`, the T/C is, setting by setting: (dose: 0.75 mg/kg/injection, schedule: Q01DX009 (ip), vehicle: saline with Tween-80) 104 % of control; (dose: 1.5 mg/kg/injection, schedule: Q01DX009 (ip), vehicle: saline with Tween-80) 104 % of control; (dose: 3.0 mg/kg/injection, schedule: Q01DX009 (ip), vehicle: saline with Tween-80) 112 % of control; (dose: 6.0 mg/kg/injection, schedule: Q01DX009 (ip), vehicle: saline with Tween-80) 96 % of control.

`C/C(=C1/SC(=S)NC1=O)c1ccc(Cl)c(O)c1`: the T/C under setting [6] is 99 % of control, the T/C under setting [7] was 97 % of control and the T/C under setting [8] is 88 % of control.

Turning to `COc1cccc2c1C(=O)c1c(O)c3c(c(O)c1C2=O)C[C@@](O)(C(C)=O)C[C@@H]3OC1CC(NCc2ccccc2)C(O)C(C)O1` (stereo not given in full), the T/C is, setting by setting: (dose: 0.78 mg/kg/injection, schedule: Q01DX009 (ip), vehicle: water) 114 % of control; (dose: 1.56 mg/kg/injection, schedule: Q01DX009 (ip), vehicle: water) 161 % of control and 162 % of control; (dose: 2.35 mg/kg/injection, schedule: Q04DX003 (ip), vehicle: water) 106 % of control; (dose: 3.13 mg/kg/injection, schedule: Q01DX009 (ip), vehicle: water) 166 % of control and 185 % of control; (dose: 6.48 mg/kg/injection, schedule: Q04DX003 (ip), vehicle: water) 166 % of control; (dose: 9.4 mg/kg/injection, schedule: Q04DX003 (ip), vehicle: water) 153 % of control. Also, the T/C (dose: 10.8 mg/kg/injection, schedule: Q04DX003 (ip), vehicle: water) was 204 % of control; the T/C (dose: 12.5 mg/kg/injection, schedule: Q01DX009 (ip), vehicle: water) is 94 % of control; the T/C (dose: 18.0 mg/kg/injection, schedule: Q04DX003 (ip), vehicle: water) is 115 % of control; the T/C (dose: 18.8 mg/kg/injection, schedule: Q04DX003 (ip), vehicle: water) is 169 % of control; the T/C (dose: 37.5 mg/kg/injection, schedule: Q04DX003 (ip), vehicle: water) is 116 % of control; the T/C (dose: 75.0 mg/kg/injection, schedule: Q04DX003 (ip), vehicle: water) was 95 % of control.

As for `Cc1c[n+]([O-])n(-c2ccccc2)n1`, the T/C is 101 % of control under setting [9], 97 % of control under setting [10] and 103 % of control under setting [11].

In the case of `Cc1ccc(S(=O)(=O)NC(CSCc2ccccc2)C(=O)NC(Cc2ccc(O)cc2)C(=O)O)cc1` (stereo not given) (Tos-Cys(Bn)-Tyr-OH; configuration not given here), the T/C by setting is: under setting [9], 103 % of control; under setting [10], 99 % of control; under setting [11], 99 % of control.

Regarding `Cc1cc(=O)c2c(N(C)C)cccc2[nH]1`, the T/C (dose: 50.0 mg/kg/injection, schedule: Q01DX009 (ip), vehicle: acid diluted with saline) was 104 % of control; the T/C (dose: 100.0 mg/kg/injection, schedule: Q01DX009 (ip), vehicle: acid diluted with saline) was 91 % of control; the T/C (dose: 200.0 mg/kg/injection, schedule: Q01DX009 (ip), vehicle: acid diluted with saline) is 96 % of control.
